# Data: patent EP0601520A1, “Trifluorothymidine derivatives, process for producing the same and anti-cancer agent containing the same” (MITSUI TOATSU CHEMICALS, Inc., priority 1992, dated 1994)
# Columns and labels:
# Meth A fibrosarcoma = assay: Anti-tumor activity, subcutaneously transplanted Meth A fibrosarcoma in mice, oral administration; format: in vivo, CDF₁ mice; details: tumors weighed on day 14
# Excerpt: (§1) The compound obtained in Examples 1, 4, 9 or 11 was uniformly suspended in 0.5% aqueous methylcellulose solution. The compound obtained in Example 14 was uniformly suspended in 0.5% aqueous methylcellulose solution containing 0.1% TWEEN 80.
# (§2) For the compounds obtained in Examples 1, 4, 9 and 11, female CDF₁ mice of 7 weeks old were used. For the compound obtained in Example 14, female CDF₁ mice of 6 weeks old were used. Each group consisted of 5 or 6 animals.
# As the tumor, Meth A fibrosarcoma was used.
# (§3) To the right abdomen of each mouse, 2 x 10⁶ tumor cells were subcutaneously transplanted. On the next day (day 1), the mice were randomly grouped and the suspension was compulsively administered to the mice by using an oral sound for successive 7 days (day 1 - day 7).
# On day 14, the tumors were removed and weighed. The tumor growth ratio (%) was calculated according to the following equation: Tumor Growth Ratio (%) = T/C x 100 [formula] wherein T means the average weight of tumor of the treated group and C means the average weight of tumor of the control group. The results about the compounds obtained in Examples 1, 4, 9 and 11 are shown in Table 2, and the results about the compound obtained in Example 14 are shown in Table 3. In Table 2, "HCFU" means 1-hexyl carbamoyl-5-fluorouracil known as "Carmofur".
# [1] = Bodyweight change of the tumor-carrying mice in the anti-tumor activity test; format: in vivo, CDF₁ mice
# Excerpt: as §1, §2, §3
# [2] = dose 100.0 mg/kg, Table 2 experiment, female CDF₁ mice
smiles,measurement,setting,value
"C#CCO[C@H]1C[C@H](n2cc(C(F)(F)F)c(=O)[nH]c2=O)O[C@@H]1COC(=S)c1cccs1 [Example 11, 3'-O-propargyl-5'-O-(2-thiophenecarbothionyl)-α,α,α-trifluorothymidine]",Tumor Weight Ratio (T/C:%),"Meth A fibrosarcoma; dose 13.8 mg/kg oral, day 1 - day 7, female CDF₁ mice 7 weeks old",27.6%
same,Tumor Weight Ratio (T/C:%),"Meth A fibrosarcoma; dose 55.1 mg/kg oral, day 1 - day 7, female CDF₁ mice 7 weeks old",5.8%
same,Bodyweight Change,"[1]; dose 13.8 mg/kg oral, day 1 - day 7, female CDF₁ mice 7 weeks old, 0.5% methylcellulose suspension",-0.7 g
same,Bodyweight Change,"[1]; dose 55.1 mg/kg oral, day 1 - day 7, female CDF₁ mice 7 weeks old, 0.5% methylcellulose suspension",-4.4 g
"C#CCO[C@H]1C[C@H](n2cc(C(F)(F)F)c(=O)[nH]c2=O)O[C@@H]1COC(=S)c1ccc(C)cc1 [Example 1, 3'-O-propargyl-5'-O-(4-methyl-thiobenzoyl)-α,α,α-trifluorothymidine]",Tumor Weight Ratio (T/C:%),"Meth A fibrosarcoma; dose 14.0 mg/kg oral, day 1 - day 7, female CDF₁ mice 7 weeks old",28.4%
same,Tumor Weight Ratio (T/C:%),"Meth A fibrosarcoma; dose 56.1 mg/kg oral, day 1 - day 7, female CDF₁ mice 7 weeks old",7.1%
same,Bodyweight Change,"[1]; dose 14.0 mg/kg oral, day 1 - day 7, female CDF₁ mice 7 weeks old, 0.5% methylcellulose suspension",-0.4 g
same,Bodyweight Change,"[1]; dose 56.1 mg/kg oral, day 1 - day 7, female CDF₁ mice 7 weeks old, 0.5% methylcellulose suspension",-3.2 g
"CCCCCCNC(=O)n1cc(F)c(=O)[nH]c1=O [HCFU, 1-hexyl carbamoyl-5-fluorouracil, reference compound]",Tumor Weight Ratio (T/C:%),Meth A fibrosarcoma; [2],18.0%
same,Bodyweight Change,[1]; [2],-2.0 g
"C#CCO[C@H]1C[C@H](n2cc(C(F)(F)F)c(=O)[nH]c2=O)O[C@@H]1COC(=S)c1ccccc1 [Example 14, 3'-O-propargyl-5'-O-thiobenzoyl-α,α,α-trifluorothymidine]",Tumor Weight Ratio (T/C:%),"Meth A fibrosarcoma; dose 13.6 mg/kg oral, day 1 - day 7, female CDF₁ mice 6 weeks old",29.4%
same,Tumor Weight Ratio (T/C:%),"Meth A fibrosarcoma; dose 54.4 mg/kg oral, day 1 - day 7, female CDF₁ mice 6 weeks old",7.2%
same,Bodyweight Change,"[1]; dose 13.6 mg/kg oral, day 1 - day 7, female CDF₁ mice 6 weeks old, 0.5% methylcellulose containing 0.1% TWEEN 80",-0.5 g
same,Bodyweight Change,"[1]; dose 54.4 mg/kg oral, day 1 - day 7, female CDF₁ mice 6 weeks old, 0.5% methylcellulose containing 0.1% TWEEN 80",-3.7 g
"C#CCO[C@H]1C[C@H](n2cc(C(F)(F)F)c(=O)[nH]c2=O)O[C@@H]1COC(=S)c1ccc(Cl)cc1 [Example 4, 3'-O-propargyl-5'-O-(4-chlorothiobenzoyl)-α,α,α-trifluorothymidine]",Tumor Weight Ratio (T/C:%),"Meth A fibrosarcoma; dose 14.6 mg/kg oral, day 1 - day 7, female CDF₁ mice 7 weeks old",23.3%
same,Tumor Weight Ratio (T/C:%),"Meth A fibrosarcoma; dose 58.5 mg/kg oral, day 1 - day 7, female CDF₁ mice 7 weeks old",4.8%
same,Bodyweight Change,"[1]; dose 14.6 mg/kg oral, day 1 - day 7, female CDF₁ mice 7 weeks old, 0.5% methylcellulose suspension",-0.8 g
same,Bodyweight Change,"[1]; dose 58.5 mg/kg oral, day 1 - day 7, female CDF₁ mice 7 weeks old, 0.5% methylcellulose suspension",-3.8 g
"C#CCO[C@H]1C[C@H](n2cc(C(F)(F)F)c(=O)[nH]c2=O)O[C@@H]1COC(=S)c1ccc(SC)cc1 [Example 9, 3'-O-propargyl-5'-O-(4-thiomethylthiobenzoyl)-α,α,α-trifluorothymidine]",Tumor Weight Ratio (T/C:%),"Meth A fibrosarcoma; dose 15.0 mg/kg oral, day 1 - day 7, female CDF₁ mice 7 weeks old",22.5%
same,Tumor Weight Ratio (T/C:%),"Meth A fibrosarcoma; dose 60.0 mg/kg oral, day 1 - day 7, female CDF₁ mice 7 weeks old",5.1%
same,Bodyweight Change,"[1]; dose 15.0 mg/kg oral, day 1 - day 7, female CDF₁ mice 7 weeks old, 0.5% methylcellulose suspension",-0.9 g
same,Bodyweight Change,"[1]; dose 60.0 mg/kg oral, day 1 - day 7, female CDF₁ mice 7 weeks old, 0.5% methylcellulose suspension",-4.3 g
